This note sets out measurements from US11840708B2, “Isogenic blood-brain barrier model” (Wisconsin Alumni Research Foundation, priority 2016, dated 2023).

Series [1] in a line: Sodium fluorescein permeability across iPSC-derived BMEC monolayer on Transwell. It counts as in vitro ADME, human. Particulars: human, 48 h. Here is the method: (§1) Permeability Measurements—Sodium fluorescein (10 μM, 376 Daltons; Sigma) was utilized to determine the permeability of the iPSC-BMEC barrier. Following 48 h of monoculture or co-culture, fresh EC medium was added to the Transwell system, with EC medium containing sodium fluorescein added to the top chamber and EC medium lacking sodium fluorescein added to the bottom chamber. 150 uL aliquots were taken from the bottom chamber at 0, 15, 30, 45, and 60 min, and immediately replaced with pre-warmed EC medium. Permeability coefficients were calculated based on the cleared volume of fluorescein from the top chamber to the bottom chamber.

For series [2], the system named is iPSC-derived BMECs. The description is as above. It counts as in vitro ADME, human. The settings on record: CS03iCTRn2-derived BMECs. Here is the method: as §1

Where two headings read alike, the source gives them in different places.

For the compound `O=C1OC2(c3ccc(O)cc3Oc3cc(O)ccc32)c2ccccc21` [sodium fluorescein, Sodium fluorescein], the Papp at 60 min, 10 μM in series [1] (IMR90-4 iPSC-derived BMECs co-cultured with EZ-sphere-derived neurons and astrocytes (1:3), read-out: sodium fluorescein permeability Pe) came out at 0.12 ± 0.001 ×10⁻⁶ cm/s; in series [1] (IMR90-4 iPSC-derived BMECs co-cultured with NPC-derived astrocytes and neurons, read-out: sodium fluorescein permeability Pe) it was 0.2 ± 0.1 ×10⁻⁶ cm/s; in series [1] (IMR90-4 iPSC-derived BMECs co-cultured with primary rat astrocytes, read-out: sodium fluorescein permeability Pe), 0.19 ± 0.01 ×10⁻⁶ cm/s; in series [1] (isogenic co-culture: CS03iCTRn2-derived BMECs with neurons:astrocytes (1:3), read-out: fluorescein permeability Pe) it was 0.062 ± 0.011 ×10⁻⁶ cm/s; in series [1] (monocultured CS03iCTRn2-derived BMECs, read-out: fluorescein permeability Pe) it was 0.81 ± 0.09 ×10⁻⁶ cm/s; in series [1] (monocultured IMR90-4 iPSC-derived BMECs, read-out: sodium fluorescein permeability Pe), 0.48 ± 0.03 ×10⁻⁶ cm/s. In addition, the “decrease of fluorescein permeability, isogenic co-culture compared to monoculture” value in series [2] is 13 fold.
